The NIST ThermoML archive (doi:10.1007/s10765-013-1491-2)
Values joined by “and” are separate entries in the source; they are usually repeats but may differ in a detail not shown here. Equal entries are not always repeated. ± gives the expanded uncertainty stated by the source.

Details: 101.33 kPa, Liquid, Alternating current cell with electrodes

CCOS(=O)(=O)[O-].CCn1cc[n+](C)c1 [1-ethyl-3-methylimidazolium ethyl sulfate]
Details	electrical conductivity [S/m]
288.15 K	0.235 ± 0.0095
288.16 K	0.235 ± 0.0095
293.12 K	0.302 ± 0.012
298.08 K	0.381 ± 0.015
303.15 K	0.473 ± 0.019
308.11 K	0.576 ± 0.023
313.07 K	0.69 ± 0.028
323.08 K	0.961 ± 0.038
333.11 K	1.28 ± 0.051

CCn1cc[n+](C)c1.O=S(=O)([O-])C(F)(F)F [1-ethyl-3-methylimidazolium trifluoromethanesulfonate]
Details	electrical conductivity [S/m]
288.15 K	0.623 ± 0.037
288.16 K	0.629 ± 0.038
293.11 K	0.747 ± 0.045
298.16 K	0.886 ± 0.053
303.12 K	1.04 ± 0.062
308.08 K	1.2 ± 0.072
313.16 K	1.39 ± 0.083
323.06 K	1.78 ± 0.11
333.1 K	2.24 ± 0.13

CCCCCC[n+]1ccn(C)c1.O=S(=O)([N-]S(=O)(=O)C(F)(F)F)C(F)(F)F
Details	electrical conductivity [S/m]
288.27 K	0.136
293.13 K	0.172 ± 0.0069
298.1 K	0.216 ± 0.0087
303.18 K	0.268 ± 0.011
308.13 K	0.326 ± 0.013
313.08 K	0.391 ± 0.016
323.11 K	0.544 ± 0.022
333.01 K	0.725 ± 0.029

CCn1cc[n+](C)c1.O=S(=O)([N-]S(=O)(=O)C(F)(F)F)C(F)(F)F
Details	electrical conductivity
288.16 K	0.644 S/m and 0.645 S/m
293.12 K	0.768 ± 0.031 S/m
298.08 K	0.905 ± 0.036 S/m
303.15 K	1.06 ± 0.043 S/m
308.11 K	1.22 ± 0.049 S/m
313.06 K	1.39 ± 0.056 S/m
323.07 K	1.77 ± 0.071 S/m
333.11 K	2.2 ± 0.088 S/m
